# Laboratory results published in ChEMBL document CHEMBL5715954, “Silencing c-Myc translation as a therapeutic strategy through targeting PI3Kδ and CK1ε in hematological malignancies” (Blood, 2017).
# Columns and labels:
# Parameters in all cases: scale not given: the % may be the effect or the level left
# [1] = target: Interleukin-1 receptor-associated kinase 1 (Homo sapiens) (UniProt P51617); test: Inhibition of human IRAK1 assessed as enzyme activity at 1 uM using myelin basic protein as substrate preincubated for 20 mins followed by [gamma-33P]-ATP addition and measured after 120 mins by radiometric Hot-SpotSM Kinase assay relative to control
# [2] = target: BDNF/NT-3 growth factors receptor (Homo sapiens) (UniProt Q16620); test: Inhibition of human TRKB assessed as enzyme activity at 1 uM using poly[Glu:Tyr] (4:1) as substrate preincubated for 20 mins followed by [gamma-33P]-ATP addition and measured after 120 mins by radiometric Hot-SpotSM Kinase assay relative to control
# [3] = target: Mitogen-activated protein kinase kinase kinase 10 (Homo sapiens) (UniProt Q02779); test: Inhibition of human MLK2 assessed as enzyme activity at 1 uM using myelin basic protein as substrate preincubated for 20 mins followed by [gamma-33P]-ATP addition and measured after 120 mins by radiometric Hot-SpotSM Kinase assay relative to control
# [4] = target: T1, Serine/threonine-protein kinase D3 (Homo sapiens) (UniProt O94806); test: Inhibition of human PKCnu assessed as enzyme activity at 1 uM using KKLNRTLSVA as substrate preincubated for 20 mins followed by [gamma-33P]-ATP addition and measured after 120 mins by radiometric Hot-SpotSM Kinase assay relative to control
# T1 sequence (whole entry): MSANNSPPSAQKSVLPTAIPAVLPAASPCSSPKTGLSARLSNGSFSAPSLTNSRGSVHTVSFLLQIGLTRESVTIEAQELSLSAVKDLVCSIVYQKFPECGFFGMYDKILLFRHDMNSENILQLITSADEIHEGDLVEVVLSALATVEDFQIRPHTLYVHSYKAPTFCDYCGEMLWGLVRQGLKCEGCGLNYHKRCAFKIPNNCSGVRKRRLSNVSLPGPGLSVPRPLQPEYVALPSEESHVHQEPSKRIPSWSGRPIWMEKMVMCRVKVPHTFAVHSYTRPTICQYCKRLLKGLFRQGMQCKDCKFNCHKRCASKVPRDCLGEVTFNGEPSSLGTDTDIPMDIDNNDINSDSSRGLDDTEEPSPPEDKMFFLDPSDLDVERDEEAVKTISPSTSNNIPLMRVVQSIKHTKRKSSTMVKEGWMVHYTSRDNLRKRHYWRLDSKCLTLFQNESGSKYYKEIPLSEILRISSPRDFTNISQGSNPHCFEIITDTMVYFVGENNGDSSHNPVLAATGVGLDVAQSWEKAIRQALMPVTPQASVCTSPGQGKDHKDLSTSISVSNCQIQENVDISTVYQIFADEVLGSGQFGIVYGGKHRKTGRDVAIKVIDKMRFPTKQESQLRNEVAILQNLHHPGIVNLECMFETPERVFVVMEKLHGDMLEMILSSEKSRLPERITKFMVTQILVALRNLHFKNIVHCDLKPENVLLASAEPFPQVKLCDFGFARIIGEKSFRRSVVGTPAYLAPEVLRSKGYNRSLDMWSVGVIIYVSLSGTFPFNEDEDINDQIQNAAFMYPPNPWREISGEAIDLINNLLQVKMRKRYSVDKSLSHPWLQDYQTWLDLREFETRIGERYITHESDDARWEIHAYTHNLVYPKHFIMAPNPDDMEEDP
# [5] = target: Platelet-derived growth factor receptor alpha (Homo sapiens) (UniProt P16234); test: Inhibition of human PDGFRa assessed as enzyme activity at 1 uM using poly[Glu:Tyr] (4:1) as substrate preincubated for 20 mins followed by [gamma-33P]-ATP addition and measured after 120 mins by radiometric Hot-SpotSM Kinase assay relative to control
# [6] = target: Serine/threonine-protein kinase SIK2 (Homo sapiens) (UniProt Q9H0K1); test: Inhibition of human SIK2 assessed as enzyme activity at 1 uM using AMARAASAAALARRR as substrate preincubated for 20 mins followed by [gamma-33P]-ATP addition and measured after 120 mins by radiometric Hot-SpotSM Kinase assay relative to control
# [7] = target: T2, Serine/threonine-protein kinase Nek2 (Homo sapiens) (UniProt P51955); test: Inhibition of human NEK2 assessed as enzyme activity at 1 uM using myelin basic protein as substrate preincubated for 20 mins followed by [gamma-33P]-ATP addition and measured after 120 mins by radiometric Hot-SpotSM Kinase assay relative to control
# T2 sequence (whole entry): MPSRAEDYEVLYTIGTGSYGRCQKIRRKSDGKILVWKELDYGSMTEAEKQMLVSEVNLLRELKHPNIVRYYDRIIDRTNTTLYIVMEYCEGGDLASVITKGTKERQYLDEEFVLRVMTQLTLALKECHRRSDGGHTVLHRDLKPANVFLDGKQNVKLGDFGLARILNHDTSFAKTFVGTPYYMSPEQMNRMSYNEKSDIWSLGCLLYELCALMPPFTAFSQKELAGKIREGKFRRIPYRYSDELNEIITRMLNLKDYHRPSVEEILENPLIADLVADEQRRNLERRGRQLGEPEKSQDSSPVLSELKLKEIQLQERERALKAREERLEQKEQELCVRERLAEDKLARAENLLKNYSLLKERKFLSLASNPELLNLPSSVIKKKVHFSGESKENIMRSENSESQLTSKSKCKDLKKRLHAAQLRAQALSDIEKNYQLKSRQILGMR
# Serine/threonine-protein kinase SIK2 (Homo sapiens), sequence (Q9H0K1 whole entry, looked up): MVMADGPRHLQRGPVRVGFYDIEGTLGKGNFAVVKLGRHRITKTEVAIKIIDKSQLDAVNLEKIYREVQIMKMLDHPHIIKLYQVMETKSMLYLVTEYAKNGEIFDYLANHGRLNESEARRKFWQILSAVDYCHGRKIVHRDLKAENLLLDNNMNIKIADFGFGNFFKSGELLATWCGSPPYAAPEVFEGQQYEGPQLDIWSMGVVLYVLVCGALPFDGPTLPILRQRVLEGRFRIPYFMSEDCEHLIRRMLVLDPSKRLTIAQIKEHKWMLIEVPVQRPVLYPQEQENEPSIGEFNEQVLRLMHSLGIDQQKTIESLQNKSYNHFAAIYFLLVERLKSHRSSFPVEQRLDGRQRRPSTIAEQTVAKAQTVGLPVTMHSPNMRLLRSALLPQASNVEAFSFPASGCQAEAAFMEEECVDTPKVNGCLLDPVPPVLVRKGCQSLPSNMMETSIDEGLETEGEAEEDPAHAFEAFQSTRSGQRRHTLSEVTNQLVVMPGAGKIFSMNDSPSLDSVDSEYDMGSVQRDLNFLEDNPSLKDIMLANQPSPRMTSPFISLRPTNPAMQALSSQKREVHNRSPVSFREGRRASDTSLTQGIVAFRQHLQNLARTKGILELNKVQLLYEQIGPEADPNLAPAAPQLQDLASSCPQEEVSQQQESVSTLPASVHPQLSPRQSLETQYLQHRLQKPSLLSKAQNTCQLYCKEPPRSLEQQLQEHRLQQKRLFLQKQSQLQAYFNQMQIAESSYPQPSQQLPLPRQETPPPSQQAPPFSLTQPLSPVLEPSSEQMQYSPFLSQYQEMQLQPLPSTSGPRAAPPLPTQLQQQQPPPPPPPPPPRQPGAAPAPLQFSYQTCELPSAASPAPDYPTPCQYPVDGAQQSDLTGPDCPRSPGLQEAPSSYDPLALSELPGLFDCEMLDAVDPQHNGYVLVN
# Interleukin-1 receptor-associated kinase 1 (Homo sapiens), sequence (P51617 whole entry, looked up): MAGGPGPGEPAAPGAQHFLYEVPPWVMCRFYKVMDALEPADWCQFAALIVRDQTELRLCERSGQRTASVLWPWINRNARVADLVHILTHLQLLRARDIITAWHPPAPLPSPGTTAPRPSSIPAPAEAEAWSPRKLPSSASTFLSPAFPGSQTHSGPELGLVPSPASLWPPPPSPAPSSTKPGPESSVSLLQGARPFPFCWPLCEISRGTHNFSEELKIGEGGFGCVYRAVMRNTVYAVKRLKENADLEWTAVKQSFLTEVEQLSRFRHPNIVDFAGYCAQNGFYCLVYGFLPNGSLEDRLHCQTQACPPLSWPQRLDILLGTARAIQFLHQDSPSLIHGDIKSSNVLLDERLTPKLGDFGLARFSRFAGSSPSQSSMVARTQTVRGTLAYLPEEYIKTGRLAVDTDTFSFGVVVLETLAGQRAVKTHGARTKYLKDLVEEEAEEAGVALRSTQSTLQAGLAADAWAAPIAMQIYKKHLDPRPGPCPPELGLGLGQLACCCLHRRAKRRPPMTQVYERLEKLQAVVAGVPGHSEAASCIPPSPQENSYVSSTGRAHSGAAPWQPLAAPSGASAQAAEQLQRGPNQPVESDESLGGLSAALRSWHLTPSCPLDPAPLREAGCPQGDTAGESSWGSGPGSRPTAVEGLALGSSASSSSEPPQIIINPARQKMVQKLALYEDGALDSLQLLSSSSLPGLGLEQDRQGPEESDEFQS
# Mitogen-activated protein kinase kinase kinase 10 (Homo sapiens), sequence (Q02779 whole entry, looked up): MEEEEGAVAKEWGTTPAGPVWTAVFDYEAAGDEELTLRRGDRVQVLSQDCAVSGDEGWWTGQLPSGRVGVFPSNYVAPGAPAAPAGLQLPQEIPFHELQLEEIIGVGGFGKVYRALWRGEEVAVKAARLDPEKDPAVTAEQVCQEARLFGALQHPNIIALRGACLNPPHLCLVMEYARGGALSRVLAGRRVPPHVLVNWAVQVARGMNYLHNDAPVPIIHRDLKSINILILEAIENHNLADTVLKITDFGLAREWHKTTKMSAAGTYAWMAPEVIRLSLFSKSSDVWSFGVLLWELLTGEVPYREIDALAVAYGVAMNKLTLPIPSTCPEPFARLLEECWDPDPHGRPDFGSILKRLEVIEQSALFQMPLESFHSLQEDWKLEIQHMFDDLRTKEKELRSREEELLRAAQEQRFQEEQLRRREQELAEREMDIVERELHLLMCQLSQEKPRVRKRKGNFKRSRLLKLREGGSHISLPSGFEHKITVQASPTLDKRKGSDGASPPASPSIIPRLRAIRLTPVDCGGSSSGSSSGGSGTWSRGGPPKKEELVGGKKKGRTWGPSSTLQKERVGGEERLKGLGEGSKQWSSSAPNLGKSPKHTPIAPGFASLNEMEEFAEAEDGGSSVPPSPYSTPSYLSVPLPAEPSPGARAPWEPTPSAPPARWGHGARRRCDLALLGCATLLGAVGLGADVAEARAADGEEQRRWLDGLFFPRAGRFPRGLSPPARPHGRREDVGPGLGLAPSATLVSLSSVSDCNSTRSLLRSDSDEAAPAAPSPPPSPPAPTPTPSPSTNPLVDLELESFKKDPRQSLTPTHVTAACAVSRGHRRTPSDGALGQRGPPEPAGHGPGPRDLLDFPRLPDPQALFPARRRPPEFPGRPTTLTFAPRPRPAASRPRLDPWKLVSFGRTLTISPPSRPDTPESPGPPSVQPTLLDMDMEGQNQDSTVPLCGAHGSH
# BDNF/NT-3 growth factors receptor (Homo sapiens), sequence (Q16620 32-822 limits assumed): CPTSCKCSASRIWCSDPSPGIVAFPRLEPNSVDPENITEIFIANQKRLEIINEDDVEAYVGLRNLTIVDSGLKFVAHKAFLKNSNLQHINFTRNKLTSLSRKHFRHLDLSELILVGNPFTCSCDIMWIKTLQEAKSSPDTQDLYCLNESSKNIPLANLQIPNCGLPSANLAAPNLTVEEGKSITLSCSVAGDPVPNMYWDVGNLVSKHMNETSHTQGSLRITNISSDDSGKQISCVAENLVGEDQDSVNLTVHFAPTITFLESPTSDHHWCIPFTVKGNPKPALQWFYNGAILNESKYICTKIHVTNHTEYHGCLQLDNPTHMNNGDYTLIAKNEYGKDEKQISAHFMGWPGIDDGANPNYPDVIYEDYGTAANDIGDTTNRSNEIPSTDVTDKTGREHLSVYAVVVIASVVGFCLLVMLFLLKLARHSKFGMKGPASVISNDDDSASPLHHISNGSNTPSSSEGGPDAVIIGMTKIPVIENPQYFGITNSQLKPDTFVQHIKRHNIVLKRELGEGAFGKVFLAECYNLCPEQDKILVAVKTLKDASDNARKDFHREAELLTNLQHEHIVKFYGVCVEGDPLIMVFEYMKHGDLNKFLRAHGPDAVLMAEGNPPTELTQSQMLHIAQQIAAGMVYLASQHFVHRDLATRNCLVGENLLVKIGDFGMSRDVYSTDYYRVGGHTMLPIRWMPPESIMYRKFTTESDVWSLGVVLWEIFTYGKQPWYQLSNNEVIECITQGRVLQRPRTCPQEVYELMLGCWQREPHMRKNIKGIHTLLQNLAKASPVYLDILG
# Platelet-derived growth factor receptor alpha (Homo sapiens), sequence (P16234 whole entry): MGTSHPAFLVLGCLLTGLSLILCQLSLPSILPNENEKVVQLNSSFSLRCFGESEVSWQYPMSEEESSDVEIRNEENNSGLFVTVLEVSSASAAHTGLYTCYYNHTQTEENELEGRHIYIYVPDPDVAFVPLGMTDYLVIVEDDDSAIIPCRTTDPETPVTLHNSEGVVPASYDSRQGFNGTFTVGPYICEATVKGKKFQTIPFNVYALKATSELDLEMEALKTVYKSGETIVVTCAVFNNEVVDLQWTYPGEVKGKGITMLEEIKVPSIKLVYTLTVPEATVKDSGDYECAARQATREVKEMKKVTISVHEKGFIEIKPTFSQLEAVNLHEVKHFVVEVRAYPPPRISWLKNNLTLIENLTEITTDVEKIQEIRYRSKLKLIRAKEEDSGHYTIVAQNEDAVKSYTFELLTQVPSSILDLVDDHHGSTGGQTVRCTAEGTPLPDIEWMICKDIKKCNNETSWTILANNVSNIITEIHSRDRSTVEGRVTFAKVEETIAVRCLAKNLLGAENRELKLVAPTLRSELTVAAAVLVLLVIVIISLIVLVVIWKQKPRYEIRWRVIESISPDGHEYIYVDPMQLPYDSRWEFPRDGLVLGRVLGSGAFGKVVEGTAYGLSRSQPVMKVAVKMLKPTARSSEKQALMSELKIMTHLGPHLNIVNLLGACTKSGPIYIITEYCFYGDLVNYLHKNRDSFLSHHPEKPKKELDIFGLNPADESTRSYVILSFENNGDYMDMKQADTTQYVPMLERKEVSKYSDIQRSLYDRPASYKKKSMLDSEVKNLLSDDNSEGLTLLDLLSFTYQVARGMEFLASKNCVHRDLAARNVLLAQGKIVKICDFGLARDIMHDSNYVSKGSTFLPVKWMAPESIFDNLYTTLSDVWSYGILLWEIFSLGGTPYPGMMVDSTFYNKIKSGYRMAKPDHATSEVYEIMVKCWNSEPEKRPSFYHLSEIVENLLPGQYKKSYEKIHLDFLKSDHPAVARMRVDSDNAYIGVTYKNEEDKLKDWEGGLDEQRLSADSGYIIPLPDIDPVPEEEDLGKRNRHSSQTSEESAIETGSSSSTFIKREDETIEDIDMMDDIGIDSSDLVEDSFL
SMILES,Activity [1] [%],Activity [2] [%],Activity [3] [%],Activity [4] [%],Activity [5] [%],Activity [6] [%],Activity [7] [%]
CC[C@H](Nc1ncnc2[nH]cnc12)c1nc2cccc(F)c2c(=O)n1-c1ccccc1,106,94.1,112,85.5,93.8,98.5,98
C[C@H](Nc1ncnc2nc[nH]c12)c1cc2cccc(Cl)c2c(=O)n1-c1ccccc1,102,95.8,103,94.8,90.1,94,110
CC(C)Oc1ccc(-c2nn([C@@H](C)c3oc4ccc(F)cc4c(=O)c3-c3cccc(F)c3)c3ncnc(N)c23)cc1F [UMBRALISIB],105,96,108,98.4,100,95.4,101
